Laboratory results published in paper PMC10482942, “Novel quinazoline-1,2,3-triazole hybrids with anticancer and MET kinase targeting properties” (Scientific Reports, 2023).

What was measured:
MET kinase = molecular target: T1, MET kinase (Homo sapiens, UniProt P08581); experiment: MET kinase enzymatic HTRF assay; type: biochemical
T1 construct: purchased Millipore
Procedure: HTRF assay detects the phosphorylation level of a biotinylated tyrosine kinase substrate peptide (TK substrate) by MET kinase. The HTRF® KinEASE™ TK kit and MET kinase were purchased from Cisbio and Millipore, respectively. The optimal conditions for enzyme, substrate, ATP concentrations, and enzymatic reaction times were set.
In order to prepare the test compounds, after dissolving in DMSO, they were diluted in the reaction buffer containing 50 mM HEPES pH 7.0, 0.1 mM sodium orthovanadate, 0.01% BSA, 0.02% NaN3, 10 mM MgCl2, 5 mM MnCl2, 2 mM DTT. […] Finally, the Time Resolved-Fluorescence Resonance Energy Transfer (TR-FRET) signal was measured after an hour of incubation at room temperature.
The following equations were used to determine the inhibition rate (%): Ratio665/620=Emission665 nm/Emission620nm ΔR=Ratio Sample665/620-Ratio Background665/620∗100/Ratio Background665/620 Inhibition%=ΔRControl-ΔRSample∗100/ΔRControl
Background samples contained all reagents except for the enzyme. Control wells contained the same amount of DMSO contained in the sample.

AsPC-1 cells [1] = experiment: SRB antiproliferative assay, monolayer culture; type: cell-based, human; conditions: Homo sapiens, ASPC1, 72 h, mean ± S.E.M.
Procedure: (§1) EBC-1 (human lung […] cells with MET gene amplification) and Mia-Paca-2 (human PDAC cells) were obtained from Japanese Collection of Research Bio Resources Cell Bank (JCRB). AsPC-1 (human PDAC), MKN-45 (human gastric adenocarcinoma cells with MET gene amplification), HT-29 (human colorectal adenocarcinoma), and K562 cells (human chronic myelogenous leukemia) were obtained from the Iranian Biological Resource Centre, Tehran, Iran. AsPC-1, EBC-1, MKN-45, and K562 cells were cultured in RPMI 1640 medium containing 10% heat-inactivated fetal bovine serum (FBS) and 1% penicillin/streptomycin. Mia-Paca-2 and HT-29 cells were grown in DMEM low glucose, containing 10% and 20% heat-inactivated FBS, resoectively and 100 U/ml penicillin/streptomycin. All cells were grown in monolayer cultures at 37 °C in a humidified incubator with 5% CO2.
(§2) Antiproliferative effects of synthetic compounds were evaluated by the SRB assay as described previously. Cancer cells were trypsinized, homogenous cell suspensions were prepared and 100 µl of cell suspensions were cultured at the densities of 5 × 10^4 cells/ml (for AsPC-1 and Mia-Paca-2), 4 × 10^4 cells/m (for EBC-1 and MKN-45), 3 × 10^4 cells/ml (for K562) and 1 × 10^4 cells/ml (for HT-29) in 96-well flat-bottom plates. After 24 h of incubation to allow cells to attach and resume optimal growth, the synthetic compounds dissolved in DMSO and diluted in the growth medium were added. One hundred µl of synthesized derivatives were added at different concentrations in triplicate and incubated for an additional 72 h at 37 °C. The cells were then fixed by gentle addition of 50 μl cold trichloroacetic acid (TCA) 50% (w/v, 10% final concentration) and incubated for 60 min at 4 °C. Then, the supernatant was discarded, and the plates were washed four times with distilled water and air dried. Afterwards, 100 μl of SRB solution 0.04% (w/v) dissolved in 1% acetic acid was added to each well, and plates were incubated for 15 min at room temperature. At the next step, the unbound dye was removed by washing four times with 1% acetic acid and the plates were air dried. The bound stain was finally solubilized with 150 μl of 10 mM Tris base solution, and the absorbance was recorded at a wavelength of 540 nm with a Bio-Tek microplate reader (Model Synergy HTX).

EBC-1 cells = experiment: SRB antiproliferative assay, monolayer culture; type: cell-based, human; conditions: Homo sapiens, EBC-1, 72 h, mean ± S.E.M.
Procedure: as §1, §2

HT-29 cells = experiment: SRB antiproliferative assay, monolayer culture; type: cell-based, human; conditions: Homo sapiens, HT-29, 72 h, mean ± S.E.M.
Procedure: as §1, §2

K562 cells = experiment: SRB antiproliferative assay, monolayer culture; type: cell-based, human; conditions: Homo sapiens, K562, 72 h, mean ± S.E.M.
Procedure: as §1, §2

MKN-45 cells = experiment: SRB antiproliferative assay, monolayer culture; type: cell-based, human; conditions: Homo sapiens, MKN-45, 72 h, mean ± S.E.M.
Procedure: as §1, §2

Mia-Paca-2 cells = experiment: SRB antiproliferative assay, monolayer culture; type: cell-based, human; conditions: Homo sapiens, MIA PaCa-2, 72 h, mean ± S.E.M.
Procedure: as §1, §2

AsPC-1 cells [2] = experiment: Apoptosis induction, annexin V-FITC/PI flow cytometry; type: cell-based, human; conditions: 10 μM, 48 h; for Late apoptosis: untreated 4.8%; for Early apoptosis: untreated 7.6%; for Percentage of total apoptosis: untreated 12.4%
Procedure: The ability of apoptosis induction of synthetic compounds was evaluated by FACS analysis with Annexin V-FITC/propidiuim iodide (PI) staining kit (BD Pharmingen, San Diego, CA, USA). AsPC-1 cells were cultured in 6-well plates at a density of 1 × 10^5 cells/ml. After 24 h, the synthesized derivatives at different concentrations were added and incubated for 48 h. After addition of trypsin to each well, the cells were harvested, transferred to 1.5 ml tubes and washed twice with PBS. At the final step, the cells were stained with Annexin V-FITC (5 µl) and PI (5 µl), followed by analysis by a FACS Calibur flow cytometer (Becton Dickinson, Mountain View, CA, USA). The effects of synthetic derivatives on the apoptosis rate were evaluated based on the fluorescence signal of 20,000 events.

ABL (h) = molecular target: T2, ABL (h) (Homo sapiens, UniProt P00519); experiment: Radiometric kinase panel assay; type: biochemical; conditions: Km ATP
T2 construct: purchased Eurofins Discovery

ALK (h) = molecular target: T3, ALK (h) (Homo sapiens, UniProt Q9UM73); experiment: Radiometric kinase panel assay; type: biochemical; conditions: Km ATP
T3 construct: purchased Eurofins Discovery

FLT3 (h) = molecular target: T4, FLT3 (h) (Homo sapiens, UniProt P36888); experiment: Radiometric kinase panel assay; type: biochemical; conditions: Km ATP
T4 construct: purchased Eurofins Discovery

PDGFRA (h) = molecular target: T5, PDGFRA (h) (Homo sapiens, UniProt P16234); experiment: Radiometric kinase panel assay and dose-response; type: biochemical; conditions: for inhibition at 10 µM: radiometric assay, Km ATP
T5 construct: purchased Eurofins Discovery
Procedure: Moreover, a dose–response analysis was performed at six concentrations to determine the activity of compound 8c against PDGFRA kinase, and IC50 value was estimated by curve fitting. The tests were performed by Eurofins Discovery (https://www.eurofinsdiscovery.com).

TRKA (h) = molecular target: T6, TRKA (h) (Homo sapiens, UniProt P04629); experiment: Radiometric kinase panel assay; type: biochemical; conditions: Km ATP
T6 construct: purchased Eurofins Discovery

T1 sequence (P08581 25-1390): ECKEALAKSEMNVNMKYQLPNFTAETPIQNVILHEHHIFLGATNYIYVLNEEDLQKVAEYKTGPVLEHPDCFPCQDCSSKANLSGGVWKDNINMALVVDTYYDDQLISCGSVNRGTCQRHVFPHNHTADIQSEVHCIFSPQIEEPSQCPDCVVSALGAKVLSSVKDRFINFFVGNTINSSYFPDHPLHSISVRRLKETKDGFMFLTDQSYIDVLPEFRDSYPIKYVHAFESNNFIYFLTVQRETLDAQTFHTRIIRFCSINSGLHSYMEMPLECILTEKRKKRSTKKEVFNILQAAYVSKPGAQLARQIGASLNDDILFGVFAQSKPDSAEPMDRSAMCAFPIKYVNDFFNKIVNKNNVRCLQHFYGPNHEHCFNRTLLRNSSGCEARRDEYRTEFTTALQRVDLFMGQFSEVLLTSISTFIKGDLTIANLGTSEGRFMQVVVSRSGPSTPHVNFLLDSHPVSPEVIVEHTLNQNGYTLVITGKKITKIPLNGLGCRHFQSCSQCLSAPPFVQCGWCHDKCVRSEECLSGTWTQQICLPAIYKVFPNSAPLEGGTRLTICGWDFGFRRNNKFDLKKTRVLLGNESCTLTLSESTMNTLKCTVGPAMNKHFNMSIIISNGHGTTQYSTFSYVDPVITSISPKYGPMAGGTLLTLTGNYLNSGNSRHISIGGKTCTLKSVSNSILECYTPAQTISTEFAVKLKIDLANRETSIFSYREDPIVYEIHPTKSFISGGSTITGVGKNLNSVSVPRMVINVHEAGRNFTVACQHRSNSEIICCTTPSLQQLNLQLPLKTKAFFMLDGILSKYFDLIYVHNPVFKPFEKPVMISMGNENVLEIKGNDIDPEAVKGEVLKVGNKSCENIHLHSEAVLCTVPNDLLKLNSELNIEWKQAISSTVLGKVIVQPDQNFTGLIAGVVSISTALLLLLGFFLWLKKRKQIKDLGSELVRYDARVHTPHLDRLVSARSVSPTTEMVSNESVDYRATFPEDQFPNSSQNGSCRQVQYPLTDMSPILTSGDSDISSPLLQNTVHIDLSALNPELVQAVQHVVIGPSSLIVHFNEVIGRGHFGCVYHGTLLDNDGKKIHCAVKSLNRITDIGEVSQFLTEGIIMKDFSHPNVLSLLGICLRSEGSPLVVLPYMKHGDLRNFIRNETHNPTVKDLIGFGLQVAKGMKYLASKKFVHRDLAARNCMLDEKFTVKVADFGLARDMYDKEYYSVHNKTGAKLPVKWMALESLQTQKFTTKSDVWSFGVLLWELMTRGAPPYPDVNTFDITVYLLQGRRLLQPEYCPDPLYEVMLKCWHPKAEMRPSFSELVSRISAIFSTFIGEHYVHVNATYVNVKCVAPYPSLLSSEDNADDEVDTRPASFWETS
T5 sequence (P16234 24-1089): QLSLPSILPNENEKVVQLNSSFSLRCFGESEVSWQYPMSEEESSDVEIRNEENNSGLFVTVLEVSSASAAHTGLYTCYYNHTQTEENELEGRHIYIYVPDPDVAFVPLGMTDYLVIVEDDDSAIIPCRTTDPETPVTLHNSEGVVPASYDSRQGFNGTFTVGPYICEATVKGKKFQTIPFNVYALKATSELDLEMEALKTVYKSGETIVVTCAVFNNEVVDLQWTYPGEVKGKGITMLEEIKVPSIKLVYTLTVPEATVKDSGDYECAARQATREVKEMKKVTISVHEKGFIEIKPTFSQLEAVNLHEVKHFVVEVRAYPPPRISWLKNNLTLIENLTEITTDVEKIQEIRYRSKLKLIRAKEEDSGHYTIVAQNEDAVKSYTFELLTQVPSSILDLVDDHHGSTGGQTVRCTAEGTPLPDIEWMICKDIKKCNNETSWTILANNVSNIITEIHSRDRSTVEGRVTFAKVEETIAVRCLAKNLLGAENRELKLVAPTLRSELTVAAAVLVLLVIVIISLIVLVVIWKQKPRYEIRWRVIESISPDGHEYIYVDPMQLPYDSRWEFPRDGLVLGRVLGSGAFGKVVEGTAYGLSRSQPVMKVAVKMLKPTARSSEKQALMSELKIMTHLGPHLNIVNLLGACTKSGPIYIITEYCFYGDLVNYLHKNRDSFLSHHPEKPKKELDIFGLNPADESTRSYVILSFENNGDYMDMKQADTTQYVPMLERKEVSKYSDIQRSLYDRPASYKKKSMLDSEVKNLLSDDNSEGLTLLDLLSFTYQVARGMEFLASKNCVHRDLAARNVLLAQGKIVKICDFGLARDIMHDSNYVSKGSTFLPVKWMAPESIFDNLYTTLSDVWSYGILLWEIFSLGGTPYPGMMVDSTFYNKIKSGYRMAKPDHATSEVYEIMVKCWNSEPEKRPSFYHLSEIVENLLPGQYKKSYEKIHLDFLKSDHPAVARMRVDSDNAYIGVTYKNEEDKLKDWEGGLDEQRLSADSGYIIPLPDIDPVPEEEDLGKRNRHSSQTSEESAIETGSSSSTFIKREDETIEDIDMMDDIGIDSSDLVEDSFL
T3 sequence (Q9UM73 19-1620): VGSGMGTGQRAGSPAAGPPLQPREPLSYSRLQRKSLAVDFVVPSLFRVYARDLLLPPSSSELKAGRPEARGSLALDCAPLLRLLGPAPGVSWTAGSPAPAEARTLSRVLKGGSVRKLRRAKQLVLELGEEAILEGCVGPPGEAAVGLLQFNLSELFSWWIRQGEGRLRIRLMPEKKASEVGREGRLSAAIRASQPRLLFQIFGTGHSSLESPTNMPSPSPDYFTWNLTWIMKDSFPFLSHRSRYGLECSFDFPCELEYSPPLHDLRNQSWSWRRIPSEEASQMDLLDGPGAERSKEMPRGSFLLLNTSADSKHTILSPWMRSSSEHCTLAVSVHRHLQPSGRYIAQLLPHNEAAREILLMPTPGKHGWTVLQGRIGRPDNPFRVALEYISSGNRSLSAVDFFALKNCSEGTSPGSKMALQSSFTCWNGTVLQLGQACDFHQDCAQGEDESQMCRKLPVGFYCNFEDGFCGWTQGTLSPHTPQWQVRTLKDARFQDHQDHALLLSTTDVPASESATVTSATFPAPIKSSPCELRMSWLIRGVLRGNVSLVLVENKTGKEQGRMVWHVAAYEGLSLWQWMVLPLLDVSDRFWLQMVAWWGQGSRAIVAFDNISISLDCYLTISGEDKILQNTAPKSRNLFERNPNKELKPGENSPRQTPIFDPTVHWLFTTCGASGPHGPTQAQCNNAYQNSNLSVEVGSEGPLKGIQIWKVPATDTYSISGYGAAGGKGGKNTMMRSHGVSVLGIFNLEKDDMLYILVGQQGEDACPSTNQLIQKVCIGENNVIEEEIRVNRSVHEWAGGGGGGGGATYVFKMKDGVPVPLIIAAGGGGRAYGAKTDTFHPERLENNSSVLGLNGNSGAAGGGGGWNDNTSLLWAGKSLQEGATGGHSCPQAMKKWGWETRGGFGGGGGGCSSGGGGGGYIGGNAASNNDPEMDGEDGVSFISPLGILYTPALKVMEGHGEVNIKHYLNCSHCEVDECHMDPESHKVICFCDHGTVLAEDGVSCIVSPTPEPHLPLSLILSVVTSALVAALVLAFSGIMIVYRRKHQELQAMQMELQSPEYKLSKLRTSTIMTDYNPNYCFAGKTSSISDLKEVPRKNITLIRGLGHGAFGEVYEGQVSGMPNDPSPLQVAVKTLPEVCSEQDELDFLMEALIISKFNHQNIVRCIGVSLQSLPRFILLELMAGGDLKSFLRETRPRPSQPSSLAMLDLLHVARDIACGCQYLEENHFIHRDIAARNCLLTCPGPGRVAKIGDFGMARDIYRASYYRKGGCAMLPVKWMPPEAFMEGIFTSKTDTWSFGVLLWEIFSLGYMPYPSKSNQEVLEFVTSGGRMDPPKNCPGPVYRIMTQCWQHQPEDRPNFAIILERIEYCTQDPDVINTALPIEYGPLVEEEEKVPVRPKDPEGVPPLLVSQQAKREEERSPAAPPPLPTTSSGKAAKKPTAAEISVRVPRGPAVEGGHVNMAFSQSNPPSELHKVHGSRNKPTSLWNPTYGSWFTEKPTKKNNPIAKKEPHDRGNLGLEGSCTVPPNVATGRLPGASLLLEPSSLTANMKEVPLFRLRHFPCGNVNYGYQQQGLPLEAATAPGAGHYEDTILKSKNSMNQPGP
T4 sequence (P36888 27-993): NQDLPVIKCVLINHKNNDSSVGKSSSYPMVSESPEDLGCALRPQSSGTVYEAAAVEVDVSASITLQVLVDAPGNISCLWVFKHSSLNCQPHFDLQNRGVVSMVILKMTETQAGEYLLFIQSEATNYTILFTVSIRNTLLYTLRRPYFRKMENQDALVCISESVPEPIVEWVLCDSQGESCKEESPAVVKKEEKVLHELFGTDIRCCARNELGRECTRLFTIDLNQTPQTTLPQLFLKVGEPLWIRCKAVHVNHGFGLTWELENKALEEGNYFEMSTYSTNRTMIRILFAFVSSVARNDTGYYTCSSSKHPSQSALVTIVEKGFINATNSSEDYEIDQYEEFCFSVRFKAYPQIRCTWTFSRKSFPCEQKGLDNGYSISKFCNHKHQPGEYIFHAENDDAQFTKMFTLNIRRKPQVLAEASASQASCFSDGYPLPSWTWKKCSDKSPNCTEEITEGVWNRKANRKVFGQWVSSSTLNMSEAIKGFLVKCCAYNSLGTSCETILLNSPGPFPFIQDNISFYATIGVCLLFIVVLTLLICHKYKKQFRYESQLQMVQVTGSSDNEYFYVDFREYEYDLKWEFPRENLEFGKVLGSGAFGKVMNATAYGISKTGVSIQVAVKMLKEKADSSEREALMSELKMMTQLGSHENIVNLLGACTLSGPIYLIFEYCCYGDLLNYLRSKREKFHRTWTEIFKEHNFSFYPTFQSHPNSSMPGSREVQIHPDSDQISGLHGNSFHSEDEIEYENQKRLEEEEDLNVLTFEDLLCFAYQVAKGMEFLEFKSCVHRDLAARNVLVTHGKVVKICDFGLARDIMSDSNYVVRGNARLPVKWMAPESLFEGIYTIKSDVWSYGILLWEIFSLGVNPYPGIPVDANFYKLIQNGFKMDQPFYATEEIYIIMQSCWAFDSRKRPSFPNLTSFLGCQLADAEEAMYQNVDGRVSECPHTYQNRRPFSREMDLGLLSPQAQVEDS

Row | Compound | inhibition at 10 µM (MET kinase; at 10 μM, mean ± S.E.M., read-out: Inhibitory effect against MET kinase) [%] | inhibition at 25 µM (MET kinase; at 25 μM, mean ± S.E.M., read-out: Inhibitory effect against MET kinase) [%] | inhibition at 50 µM (MET kinase; at 50 μM, mean ± S.E.M., read-out: Inhibitory effect against MET kinase) [%] | IC50 (AsPC-1 cells [1]) [µM] | IC50 (EBC-1 cells) [µM] | IC50 (HT-29 cells) [µM] | IC50 (K562 cells) [µM] | IC50 (MKN-45 cells) [µM] | IC50 (Mia-Paca-2 cells) [µM] | Late apoptosis (AsPC-1 cells [2]) [%] | Early apoptosis (AsPC-1 cells [2]) [%] | Percentage of total apoptosis (AsPC-1 cells [2]) [%] | inhibition at 10 µM (ABL (h)) [%] | inhibition at 10 µM (ALK (h)) [%] | inhibition at 10 µM (FLT3 (h)) [%] | inhibition at 10 µM (PDGFRA (h)) [%] | inhibition at 10 µM (TRKA (h)) [%] | IC50 (MET kinase; HTRF assay, read-out: MET kinase inhibition IC50) [µM] | IC50 (PDGFRA (h); dose-response at six concentrations, curve fitting, read-out: PDGFRA kinase inhibition IC50) [µM]
1 | CC(C)(C)c1ccc(Cn2cc(COc3ccc(C=NNc4ncnc5ccccc45)cc3)nn2)cc1 [Compound 8h, 2-(4-((1-(4-Tert-butylbenzyl)-1H-1,2,3-triazol-4-yl)methoxy)benzylidene)-1-(quinazolin-4-yl)hydrazine] | 22 ± 7.4 | 25.7 ± 4.7 | 32.9 ± 2.2 | 9.7 ± 1.9 | 6.1 ± 1 | 8.6 ± 1.3 | 34.4 ± 6.4 | 12 ± 3.9 | 11.5 ± 0.8 | 9.6 | 15.8 | 25.4 | 17 | 14 | 18 | 46 | 28 |  | 
2 | Cc1ccc(Cn2cc(COc3ccc(C=NNc4ncnc5ccccc45)cc3)nn2)cc1 [Compound 8c, 2-(4-((1-(4-Methylbenzyl)-1H-1,2,3-triazol-4-yl)methoxy)benzylidene)-1-(quinazolin-4-yl)hydrazine] |  |  |  | 15.3 ± 2.3 | 19 ± 0.7 | 21 ± 4.7 | 31.5 ± 6.4 | 22 ± 4.8 | 25.6 ± 2.4 | 10.7 | 15.5 | 26.1 | 8 | 3 | 8 | 58 | 13 | 36 ± 9.5 | 7.1
